# Data taken from ChEMBL document CHEMBL5724914, “Linking interpersonal differences in gut microbiota composition and drug biotransformation activity” (2024).
# Columns and labels:
# [1] = (§1) The drug is tested on Z-029 corresponding to rat gut metagenome with ENA study accession number: PRJEB37062 and ENA sample accession number: ERS12561828 for biotransformation under anaerobic condition. The drug concentrations were measured over 9 timepoints collected between 0 and 24 hours of incubation by liquid-chromatography-coupled mass spectrometry (LC–MS); settings: 2 µM
# [2] = human gut metagenome, 24 h, 2 µM
# [3] = as §1, with “on Z-011” for “on Z-029”, “to mouse” for “to rat”, “number: ERS12561811” for “number: ERS12561828”; settings: 2 µM
# [4] = human gut metagenome, 24 h, 2 µM; remark: listed apart in the source
# [5] = as §1, with “on WLS-350” for “on Z-029”, “to human” for “to rat”, “number: ERS12561789” for “number: ERS12561828”; settings: 2 µM
# [6] = human gut metagenome, 24 h, 2 µM; remark: listed apart in the source
# [7] = as §1, with “Z-026” for “Z-029”, “to” for “to rat gut”, “ERS12561825” for “ERS12561828”; settings: 2 µM
# [8] = as §1, with “Z-027” for “Z-029”, “to” for “to rat gut”, “ERS12561826” for “ERS12561828”; settings: 2 µM
# [9] = human gut metagenome, 24 h, 2 µM; remark: listed apart in the source
# [10] = human gut metagenome, 24 h, 2 µM; remark: listed apart in the source
# [11] = as §1, with “Z-021” for “Z-029”, “to” for “to rat gut”, “ERS12561820” for “ERS12561828”; settings: 2 µM
# [12] = as §1, with “on Z-013” for “on Z-029”, “to rabbit” for “to rat”, “number: ERS12561813” for “number: ERS12561828”; settings: 2 µM
# [13] = as §1, with “on Z-016” for “on Z-029”, “to mouse” for “to rat”, “number: ERS12561815” for “number: ERS12561828”; settings: 2 µM
# [14] = human gut metagenome, 24 h, 2 µM; remark: listed apart in the source
# [15] = as §1, with “on Z-024” for “on Z-029”, “to pig” for “to rat”, “number: ERS12561823” for “number: ERS12561828”; settings: 2 µM
# [16] = human gut metagenome, 24 h, 2 µM; remark: listed apart in the source
# [17] = as §1, with “on WLS-038” for “on Z-029”, “to human” for “to rat”, “number: ERS12561745” for “number: ERS12561828”; settings: 2 µM
# [18] = as §1, with “on WLS-077” for “on Z-029”, “to human” for “to rat”, “number: ERS12561750” for “number: ERS12561828”; settings: 2 µM
# [19] = as §1, with “on Z-017” for “on Z-029”, “to mouse” for “to rat”, “number: ERS12561816” for “number: ERS12561828”; settings: 2 µM
# [20] = as §1, with “Z-019” for “Z-029”, “ERS12561818” for “ERS12561828”; settings: 2 µM
# Further: call rule not given here.
SMILES,Bacterial Biotransformation [1],Bacterial Biotransformation [2],Bacterial Biotransformation [3],Bacterial Biotransformation [4],Bacterial Biotransformation [5],Bacterial Biotransformation [6],Bacterial Biotransformation [7],Bacterial Biotransformation [8],Bacterial Biotransformation [9],Bacterial Biotransformation [10],Bacterial Biotransformation [11],Bacterial Biotransformation [12],Bacterial Biotransformation [13],Bacterial Biotransformation [14],Bacterial Biotransformation [15],Bacterial Biotransformation [16],Bacterial Biotransformation [17],Bacterial Biotransformation [18],Bacterial Biotransformation [19],Bacterial Biotransformation [20]
CN1CCC(OC(c2ccccc2)c2ccccc2)CC1,Compound NOT metabolized,Compound NOT metabolized,Compound NOT metabolized,Compound metabolized,Compound NOT metabolized,Compound metabolized,Compound NOT metabolized,Compound NOT metabolized,Compound metabolized,Compound NOT metabolized,Compound metabolized,Compound NOT metabolized,Compound NOT metabolized,Compound metabolized,Compound metabolized,Compound metabolized,Compound NOT metabolized,Compound NOT metabolized,Compound NOT metabolized,Compound NOT metabolized
CC1=C(CC(=O)O)c2cc(F)ccc2/C1=C\c1ccc([S+](C)[O-])cc1 (centres undefined),Compound metabolized,Compound metabolized,Compound NOT metabolized,Compound metabolized,Compound metabolized,Compound metabolized,Compound metabolized,Compound NOT metabolized,–,Compound metabolized,Compound NOT metabolized,Compound NOT metabolized,Compound NOT metabolized,Compound NOT metabolized,Compound metabolized,Compound metabolized,Compound metabolized,Compound metabolized,Compound NOT metabolized,Compound NOT metabolized
CCOC(=O)[C@H](CCc1ccccc1)N[C@@H](C)C(=O)N1Cc2ccccc2C[C@H]1C(=O)O,Compound NOT metabolized,Compound NOT metabolized,Compound NOT metabolized,Compound metabolized,Compound NOT metabolized,Compound metabolized,Compound NOT metabolized,Compound NOT metabolized,Compound metabolized,Compound metabolized,Compound NOT metabolized,Compound NOT metabolized,Compound NOT metabolized,Compound metabolized,Compound NOT metabolized,Compound metabolized,Compound metabolized,Compound metabolized,Compound NOT metabolized,Compound NOT metabolized
CCN1CCCC1CNC(=O)c1cc(S(=O)(=O)CC)c(N)cc1OC (centres undefined) [AMISULPRIDE],Compound NOT metabolized,Compound NOT metabolized,Compound NOT metabolized,Compound NOT metabolized,Compound NOT metabolized,Compound NOT metabolized,Compound NOT metabolized,Compound NOT metabolized,Compound metabolized,Compound metabolized,Compound NOT metabolized,Compound NOT metabolized,Compound NOT metabolized,Compound NOT metabolized,Compound NOT metabolized,Compound NOT metabolized,Compound NOT metabolized,Compound NOT metabolized,Compound NOT metabolized,Compound NOT metabolized
CC(C)NCC(O)COc1ccc(CC(N)=O)cc1 (centres undefined) [ATENOLOL],Compound NOT metabolized,Compound NOT metabolized,Compound NOT metabolized,Compound NOT metabolized,Compound NOT metabolized,Compound metabolized,Compound NOT metabolized,Compound NOT metabolized,Compound metabolized,Compound NOT metabolized,Compound NOT metabolized,Compound NOT metabolized,Compound NOT metabolized,Compound NOT metabolized,Compound NOT metabolized,Compound NOT metabolized,Compound NOT metabolized,Compound metabolized,Compound NOT metabolized,Compound NOT metabolized
O=C1N=C([O-])NC1(c1ccccc1)c1ccccc1.[Na+] [PHENYTOIN SODIUM],–,Compound NOT metabolized,Compound NOT metabolized,Compound metabolized,Compound metabolized,Compound NOT metabolized,Compound NOT metabolized,Compound NOT metabolized,Compound metabolized,Compound metabolized,–,Compound NOT metabolized,Compound NOT metabolized,Compound NOT metabolized,Compound NOT metabolized,Compound NOT metabolized,Compound NOT metabolized,Compound NOT metabolized,Compound NOT metabolized,Compound NOT metabolized
C[C@]12C=CC(=O)C=C1CC[C@@H]1[C@@H]2C(=O)C[C@@]2(C)[C@H]1CC[C@]2(O)C(=O)CO [PREDNISONE],Compound metabolized,Compound metabolized,Compound NOT metabolized,Compound metabolized,Compound metabolized,Compound metabolized,Compound metabolized,Compound NOT metabolized,Compound metabolized,Compound metabolized,Compound metabolized,Compound NOT metabolized,Compound metabolized,Compound NOT metabolized,Compound metabolized,–,Compound metabolized,Compound metabolized,Compound metabolized,Compound NOT metabolized
N#Cc1ccc2[nH]cc(CCCCN3CCN(c4ccc5oc(C(N)=O)cc5c4)CC3)c2c1 [VILAZODONE],Compound NOT metabolized,Compound metabolized,Compound metabolized,Compound metabolized,Compound metabolized,–,Compound NOT metabolized,Compound NOT metabolized,Compound metabolized,Compound metabolized,Compound metabolized,Compound metabolized,Compound metabolized,Compound metabolized,Compound metabolized,Compound metabolized,–,Compound metabolized,Compound NOT metabolized,Compound NOT metabolized
